This note sets out measurements from patent US20220218630A1, “METHODS AND FORMULATIONS FOR TREATING VISION DISORDERS” (JeniVision Inc., priority 2019, published 2022).

A short description of data set [1]: Ocular bioavailability following application to the periorbital skin of cynomolgus monkeys (LC/MS/MS). In kind it is in vivo. The conditions noted are these: for tiotropium level in ciliary muscle / tiotropium level in plasma: 208 μg to periorbital skin of one eye. The protocol: The animals were euthanized at predetermined time points post-dosing: 1, 2, 4, 24 hours. A blood sample and ocular tissue specimens were then taken and prepared for LC/MS/MS analysis.

Data set [2] has as its system monkey longitudinal ciliary muscle. The data set can be described thus: Isolated monkey longitudinal ciliary muscle preparation contracted by carbachol (tissue bath). Type of data set: cell-based. To be noted: for contractile effects of a further application of carbachol following wash-out: after wash-out of drug, carbachol re-applied; for effect on ciliary muscle tone: drug added cumulatively 10^−8 M to 10^−5 M. The protocol: A total of 4 longitudinal strips of ciliary muscle were obtained from one monkey eye. Four tissue baths were used concurrently for each experiment. The monkey ciliary muscle preparations were incubated in Krebs bicarbonate buffer, aerated with 95% O2/5% CO2, containing 10^−6 M indomethacin. The preparations were placed under 200 mg tension with adjustment and allowed to equilibrate for 30 minutes. The temperature was maintained at 37° C. throughout the experiment. After equilibration, the four tissue baths received (50 μL×10^−3M) 10^−6 M carbachol (sufficient to produce a mid-level 40-60% maximal response). If 10^−6 M carbachol was insufficient to cause a meaningful contraction, then (50 μL×3×10^−3M) 3×10^−6 M or (50 μL×10^−2M) 10^−5M was used. The contractile response was allowed to become stable. Tissue tension was recorded on a multi-channel electrophysiological recorder.
When cumulative addition of the drug solutions was completed, the drugs were washed-out by flushing through with buffer three times at a selected volume. Four tissue baths again received 10^−6 M (or selected concentration) carbachol and a stable contractile response was established.

[3] abbreviates: carbachol pre-contracted preparation.

As to `C[N+]1(C)[C@@H]2C[C@@H](OC(=O)C(O)(c3cccs3)c3cccs3)C[C@H]1[C@@H]1O[C@@H]12` [tiotropium], the “tiotropium level in ciliary muscle” value is 49 nM in data set [1] (1 hr post-dosing), 77 nM in data set [1] (2 hr post-dosing), 5.4 nM in data set [1] (4 hr post-dosing) and 0 nM in data set [1] (24 hr post-dosing). In addition, the “tiotropium level in plasma” value is 4.5 nM in data set [1] (1 hr post-dosing), “BLQ” in data set [1] (2 hr post-dosing), “BLQ” in data set [1] (4 hr post-dosing) and “BLQ” in data set [1] (24 hr post-dosing). For the same compound, in data set [1] (periorbital skin application, non-optimized aqueous formulations), the systemic exposure entry is on record as “minimal”. Moreover, the “contractile effects of a further application of carbachol following wash-out” value in data set [2] was “blunted”. Moreover, in data set [2] (setting [3]), the “effect on ciliary muscle tone” value is “dose-related decrease”. In addition, in data set [2] (carbachol pre-contracted preparation, tiotropium compared with salmeterol), the magnitude of relaxation result was “greater than that recorded for salmeterol”.

As to `OCc1cc(C(O)CNCCCCCCOCCCCc2ccccc2)ccc1O` (stereo not shown) [salmeterol], in data set [1] (cynomolgus monkey, in vivo), the “access to the ciliary muscle” value is “pharmacologically active concentrations” and the systemic exposure entry is recorded as “absent”. Besides, in data set [2], the “contractile effects of a further application of carbachol following wash-out” value is reported as “blunted”. Besides, the “effect on ciliary muscle tone” value in data set [2] (setting [3]) was “dose-related decrease”.
